Laboratory results taken from ChEMBL document CHEMBL3885881, “DrugMatrix”.

Organism: Rattus norvegicus
Test: DrugMatrix - Regimen: Daily Repeat
Assay type: toxicity, organism-based, Sprague-Dawley
Design: regimen Daily Repeat, gender Male, age 6-8 weeks
Details: in vivo, po, route oral GAVAGE, vehicle 100 % WATER
[1] = 9 mg/kg, 72 h, tissue Blood, dose level Low, time 3 day
[2] = 9 mg/kg, 72 h, tissue Plasma, dose level Low, time 3 day
[3] = 9 mg/kg, 120 h, tissue Blood, dose level Low, time 5 day
[4] = 9 mg/kg, 120 h, tissue Plasma, dose level Low, time 5 day
[5] = 90 mg/kg, 72 h, tissue Blood, dose level High, time 3 day
[6] = 90 mg/kg, 72 h, tissue Plasma, dose level High, time 3 day
[7] = 90 mg/kg, 120 h, tissue Blood, dose level High, time 5 day
[8] = 90 mg/kg, 120 h, tissue Plasma, dose level High, time 5 day

## STANNOUS FLUORIDE
[1]
  ABSOLUTE BASOPHIL: 0 CELLS/uL
  ABSOLUTE EOSINOPHIL: 0 CELLS/uL
  ABSOLUTE LYMPHOCYTE: 13273.33 CELLS/uL
  ABSOLUTE MONOCYTE: 348.33 CELLS/uL
  ABSOLUTE SEGMENTED NEUTROPHIL: 1378.33 CELLS/uL
  BASOPHIL: 0%
  EOSINOPHIL: 0%
  ERYTHROCYTE COUNT: 5.48 x10E6/uL
  HEMATOCRIT: 34.9%
  HEMOGLOBIN: 13.5 G/DL
  LEUKOCYTE COUNT: 15 x10E3/uL
  MEAN CORPUSCULAR HEMOGLOBIN: 24.67 pg
  MEAN CORPUSCULAR HEMOGLOBIN CONCENTRATION: 38.7 G/DL
  NUCLEATED RED BLOOD CELLS: 0 /100WBC
  PLATELET COUNT: 1118.33 x10E3/uL
[2]
  ALANINE AMINOTRANSFERASE: 80.67 u/L
  ALKALINE PHOSPHATASE: 343 u/L
  ASPARTATE AMINOTRANSFERASE: 104.33 u/L
  BLOOD UREA NITROGEN: 17 mg/dL
  CARBON DIOXIDE: 21.33 mmol/L
  CHOLESTEROL: 77 mg/dL
  CREATINE PHOSPHOKINASE: 322.33 u/L
  CREATININE: 0.21 mg/dL
  GLUCOSE: 188 mg/dL
  LACTATE DEHYDROGENASE: 156 u/L
  LIPASE: 9.5 u/L
  PHOSPHORUS: 11.3 mg/dL
  POTASSIUM: 6.63 MEQ/L
  SODIUM: 146.2 MEQ/L
  TOTAL BILIRUBIN: 0.37 mg/dL
  TOTAL PROTEIN: 5.07 G/DL
  URIC ACID: 1.73 mg/dL
[3]
  ABSOLUTE BASOPHIL: 0 CELLS/uL
  ABSOLUTE EOSINOPHIL: 174 CELLS/uL
  ABSOLUTE LYMPHOCYTE: 11650 CELLS/uL
  ABSOLUTE MONOCYTE: 421.33 CELLS/uL
  ABSOLUTE SEGMENTED NEUTROPHIL: 1221.33 CELLS/uL
  BASOPHIL: 0%
  EOSINOPHIL: 1%
  ERYTHROCYTE COUNT: 5.66 x10E6/uL
  HEMATOCRIT: 35.6%
  HEMOGLOBIN: 13.1 G/DL
  LEUKOCYTE COUNT: 13.47 x10E3/uL
  LYMPHOCYTE: 86.67%
  MEAN CORPUSCULAR HEMOGLOBIN: 23.23 pg
  MEAN CORPUSCULAR HEMOGLOBIN CONCENTRATION: 36.9 G/DL
  MEAN CORPUSCULAR VOLUME: 62.97 fL
  MONOCYTE: 3%
  NUCLEATED RED BLOOD CELLS: 0 /100WBC
  PLATELET COUNT: 1231.67 x10E3/uL
[4]
  ALANINE AMINOTRANSFERASE: 45 u/L
  ALKALINE PHOSPHATASE: 430.67 u/L
  ASPARTATE AMINOTRANSFERASE: 96.67 u/L
  BLOOD UREA NITROGEN: 22 mg/dL
  CARBON DIOXIDE: 24.33 mmol/L
  CHLORIDE: 108.67 MEQ/L
  CHOLESTEROL: 59 mg/dL
  CREATINE PHOSPHOKINASE: 371.67 u/L
  CREATININE: 0.2 mg/dL
  GLUCOSE: 135.33 mg/dL
  LACTATE DEHYDROGENASE: 479 u/L
  PHOSPHORUS: 12.03 mg/dL
  POTASSIUM: 6.27 MEQ/L
  SODIUM: 147.1 MEQ/L
  TOTAL BILIRUBIN: 0.17 mg/dL
  TOTAL PROTEIN: 6.13 G/DL
[5]
  ABSOLUTE BASOPHIL: 0 CELLS/uL
  ABSOLUTE EOSINOPHIL: 58 CELLS/uL
  ABSOLUTE LYMPHOCYTE: 13530 CELLS/uL
  ABSOLUTE MONOCYTE: 390.67 CELLS/uL
  ABSOLUTE SEGMENTED NEUTROPHIL: 1821.33 CELLS/uL
  BASOPHIL: 0%
  EOSINOPHIL: 0.33%
  ERYTHROCYTE COUNT: 5.56 x10E6/uL
  HEMATOCRIT: 34%
  LEUKOCYTE COUNT: 15.8 x10E3/uL
  LYMPHOCYTE: 85.67%
  MEAN CORPUSCULAR HEMOGLOBIN: 23.23 pg
  MEAN CORPUSCULAR HEMOGLOBIN CONCENTRATION: 38 G/DL
  NEUTROPHIL: 11.67%
  NUCLEATED RED BLOOD CELLS: 0 /100WBC
  PLATELET COUNT: 1397.33 x10E3/uL
[6]
  ALANINE AMINOTRANSFERASE: 42 u/L
  ALKALINE PHOSPHATASE: 299.67 u/L
  ASPARTATE AMINOTRANSFERASE: 76.33 u/L
  CARBON DIOXIDE: 25 mmol/L
  CHOLESTEROL: 62.33 mg/dL
  CREATINE PHOSPHOKINASE: 334 u/L
  CREATININE: 0.15 mg/dL
  LACTATE DEHYDROGENASE: 108 u/L
  PHOSPHORUS: 13.3 mg/dL
  POTASSIUM: 6 MEQ/L
  TOTAL BILIRUBIN: 0.23 mg/dL
  TOTAL PROTEIN: 5.67 G/DL
[7]
  ABSOLUTE BASOPHIL: 0 CELLS/uL
  ABSOLUTE EOSINOPHIL: 49.67 CELLS/uL
  ABSOLUTE MONOCYTE: 426 CELLS/uL
  ABSOLUTE SEGMENTED NEUTROPHIL: 994 CELLS/uL
  BASOPHIL: 0%
  EOSINOPHIL: 0.33%
  ERYTHROCYTE COUNT: 5.79 x10E6/uL
  HEMATOCRIT: 36.83%
  HEMOGLOBIN: 13.8 G/DL
  LEUKOCYTE COUNT: 14.2 x10E3/uL
  MEAN CORPUSCULAR HEMOGLOBIN: 23.9 pg
  MEAN CORPUSCULAR HEMOGLOBIN CONCENTRATION: 37.5 G/DL
  MONOCYTE: 3%
  NEUTROPHIL: 7%
  NUCLEATED RED BLOOD CELLS: 0 /100WBC
  PLATELET COUNT: 1414 x10E3/uL
[8]
  ALANINE AMINOTRANSFERASE: 41.33 u/L
  ALKALINE PHOSPHATASE: 357 u/L
  ASPARTATE AMINOTRANSFERASE: 86.33 u/L
  CARBON DIOXIDE: 24.33 mmol/L
  CREATINE PHOSPHOKINASE: 353.67 u/L
  CREATININE: 0.22 mg/dL
  GLUCOSE: 190.67 mg/dL
  LACTATE DEHYDROGENASE: 202.33 u/L
  PHOSPHORUS: 14.33 mg/dL
  POTASSIUM: 6.7 MEQ/L
  SODIUM: 150 MEQ/L
  TOTAL BILIRUBIN: 0.2 mg/dL
  TOTAL PROTEIN: 5.87 G/DL
  URIC ACID: 2.3 mg/dL
